The record followed here is publication PMC3743770, “A Selective HDAC 1/2 Inhibitor Modulates Chromatin and Gene Expression in Brain and Alters Mouse Behavior in Two Mood-Related Tests” (PLoS ONE, 2013).

Molecules are shown by their SMILES.

One data set has as its target HDAC4 (Homo sapiens, UniProt P56524). Kind of data set: biochemical.
Data set [1] has as its system 80 common CNS targets including receptors, channels and transporters. Kind of data set: CNS target binding assays (Cerep High-Throughput Profile P-3). The note with it: 10 µM, duplicate; significance 50% inhibition of control binding. An excerpt: The specific ligand binding to the receptors is defined as the difference between the total binding and the nonspecific binding determined in the presence of an excess of unlabelled ligand. […] The experiment was accepted in accordance with Cerep’s validation Standard Operating Procedure.

Data set [2] has as its system H4K12 acetylation in HEK293 cells. Kind of data set: H4K12 acetylation western blot, constant exposure and washout. The format is cell-based, human. The method, then: Frozen mouse brains (n = 6/treatment group) were rapidly dissected at 4°C to isolate frontal cortex (including PFC), ventral striatum (including NAc), and HIP for protein extraction. […] Solutions for protein extraction were supplemented with 5 mM sodium butyrate to suppress residual HDAC activity. […] Densitometric quantification was performed using Image J software (NIH) and statistical comparison to vehicle-treated controls by two-tailed t-test.
Protein was extracted by douncing in suspension buffer: 0.1 M NaCl, 0.01 M TrisCl (ph7.6), 0.001 M EDTA (pH 8.0), then immediately diluted with an equal volume of 2x SDS-gel loading buffer: 100 mM TrisCl (ph 6.8), 4% SDS, 20% glycerol, 200 mM DTT. […] Media was aspirated and cells collected for Western blotting using 40 μL buffers as detailed above for mouse brain. Solutions for protein extraction were supplemented with 5 mM sodium butyrate to suppress residual HDAC activity. Samples were denatured at 95°C for 5 min, passaged 3x through a 25 gauge needle and centrifuged at 10,000g for 10 min at room temperature and protein quantification performed using a BCA protein assay kit #23225 (Pierce). […] Chemiluminescent detection of immunoreactivity was performed using SuperSignal West Dura Substrate #34076 (Pierce) with subsequent densitometric quantification using Image J software (NIH) and statistical comparison to vehicle-treated controls by two-tailed t-test.

The nature of data set [3]: Positron emission tomography of carbon-11 labeled Cpd-60. The note with it: intravenous, preliminary unpublished data. It counts as in vivo, baboon (Papio anubis). An excerpt: Male 11 wk old C57BL/6 mice were utilized for pharmacokinetic, behavioral and biochemical analyses. One female baboon (Papio Anubis) was used to determine brain uptake and pharmacokinetics of Cpd-60. […] Non-human primate housing conditions and feeding regimens were coordinated by the professional investigative staff at the Brookhaven Laboratory Animal Facility which included social housing in cages appropriate for the physical and behavioral health of the individual animal. Animals were fed a 3x per day with additional nutritional supplements provided as prescribed by the attending veterinarian. Environmental enrichment included audio, video and tactile elements (e.g. listening to the radio, watching television, playing with toys and human interaction) and were provided on a daily basis to promote psychological well-being. All procedures were performed without compromising animal welfare and all efforts were made to minimize suffering including adequate use of anesthesia (ketamine, isoflurane) in the baboon imaging experiment. The baboon was not sacrificed following the study and further effort was taken to minimize suffering by allowing an interval of at least one month between subsequent imaging studies in the same animal.
C57BL/6 male mice were purchased at 10 weeks of age from The Jackson Laboratory and Taconic Farms. […]

The test system of data set [4] is histone H4K12 acetylation in cultured primary mouse neuronal cells. Kind of data set: Mouse primary neuronal histone acetylation assay. Conditions: Neuron, 24 h, read-out: EC50 for H4K12 acetylation.
For data set [5], the system named is H4K12ac around TSS of Agxt2l1, Sgk1, Sult1a1, Tsc22d3. Kind of data set: Chromatin immunoprecipitation (H4K12ac) of nucleus accumbens with qPCR. Conditions: NAc; 0.5 kB downstream of each TSS; 45 mg/kg i.p. 10 days. Background: In qPCR the cycle at which signal appears reflects the starting amount.
The next data set deals with HDAC5 (Homo sapiens, UniProt Q9UQL6). Kind of data set: HDAC inhibition assay, recombinant enzyme, Caliper EZ reader.
In the next data set the target is HDAC9 (Homo sapiens, UniProt Q9UKV0). Described as above.
For a further data set, the system named is mice. Kind of data set: Tolerability of chronic treatment. The format is in vivo. Conditions: Cpd-60 45 mg/kg i.p., SAHA 25 mg/kg i.p.
In another data set the test system is C57BL/6 mice. Kind of data set: Forced-swim test (FST). The format is in vivo, mouse. Conditions: chronic i.p., day 10; Cpd-60 45 mg/kg, SAHA 25 mg/kg; vs vehicle. The method, then:
Compounds were administered between 9 am and 1 pm for 7 days prior to the start of behavioral testing, and after completion of each daily session during behavioral testing. Testing was performed 18–24 hr after the previous treatment to avoid transient effects. Amphetamine-induced hyperlocomotion (AIH) was performed as previously described on days 7–9 of treatment with activity measured before and after amphetamine challenge (AccuScan Instruments, Inc.). Forced-swim test (FST) behavior was performed as previously described on day 10 of treatment and total time spent immobile during a 6 min session was scored automatically (Ethovision; Noldus). Treatment effects were analyzed by one way analysis of variance (ANOVA) with post hoc analysis using Least Squared Differences test (SPSS v18.0 IBM).

Sequence of HDAC9 (Q9UKV0 whole entry): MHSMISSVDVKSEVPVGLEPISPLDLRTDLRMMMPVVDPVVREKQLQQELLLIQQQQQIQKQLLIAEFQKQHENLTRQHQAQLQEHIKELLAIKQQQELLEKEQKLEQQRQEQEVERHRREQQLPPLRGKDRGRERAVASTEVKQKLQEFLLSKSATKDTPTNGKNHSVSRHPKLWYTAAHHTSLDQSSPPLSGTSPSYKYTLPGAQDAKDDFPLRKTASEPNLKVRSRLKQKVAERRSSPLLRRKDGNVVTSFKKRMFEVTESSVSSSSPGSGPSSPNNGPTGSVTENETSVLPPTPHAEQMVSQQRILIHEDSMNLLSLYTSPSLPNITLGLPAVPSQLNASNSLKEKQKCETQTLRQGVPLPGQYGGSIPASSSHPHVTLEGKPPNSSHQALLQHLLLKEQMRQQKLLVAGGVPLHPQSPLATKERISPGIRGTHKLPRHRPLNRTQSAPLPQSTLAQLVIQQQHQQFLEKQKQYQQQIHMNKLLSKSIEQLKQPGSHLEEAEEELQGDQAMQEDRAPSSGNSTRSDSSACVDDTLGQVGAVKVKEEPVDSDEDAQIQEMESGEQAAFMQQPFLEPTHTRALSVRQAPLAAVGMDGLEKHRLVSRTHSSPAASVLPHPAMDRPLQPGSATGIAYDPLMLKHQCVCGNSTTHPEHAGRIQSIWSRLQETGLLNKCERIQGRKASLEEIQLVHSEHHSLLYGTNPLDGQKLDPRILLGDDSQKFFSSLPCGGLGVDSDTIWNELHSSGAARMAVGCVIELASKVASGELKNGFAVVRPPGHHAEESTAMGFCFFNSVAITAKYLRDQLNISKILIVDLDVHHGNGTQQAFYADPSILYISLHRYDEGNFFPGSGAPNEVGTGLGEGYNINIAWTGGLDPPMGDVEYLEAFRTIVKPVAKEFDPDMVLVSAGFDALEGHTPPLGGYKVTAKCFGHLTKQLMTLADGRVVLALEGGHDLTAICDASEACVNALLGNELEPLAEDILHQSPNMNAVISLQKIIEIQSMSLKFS
Sequence of HDAC4 (P56524 whole entry): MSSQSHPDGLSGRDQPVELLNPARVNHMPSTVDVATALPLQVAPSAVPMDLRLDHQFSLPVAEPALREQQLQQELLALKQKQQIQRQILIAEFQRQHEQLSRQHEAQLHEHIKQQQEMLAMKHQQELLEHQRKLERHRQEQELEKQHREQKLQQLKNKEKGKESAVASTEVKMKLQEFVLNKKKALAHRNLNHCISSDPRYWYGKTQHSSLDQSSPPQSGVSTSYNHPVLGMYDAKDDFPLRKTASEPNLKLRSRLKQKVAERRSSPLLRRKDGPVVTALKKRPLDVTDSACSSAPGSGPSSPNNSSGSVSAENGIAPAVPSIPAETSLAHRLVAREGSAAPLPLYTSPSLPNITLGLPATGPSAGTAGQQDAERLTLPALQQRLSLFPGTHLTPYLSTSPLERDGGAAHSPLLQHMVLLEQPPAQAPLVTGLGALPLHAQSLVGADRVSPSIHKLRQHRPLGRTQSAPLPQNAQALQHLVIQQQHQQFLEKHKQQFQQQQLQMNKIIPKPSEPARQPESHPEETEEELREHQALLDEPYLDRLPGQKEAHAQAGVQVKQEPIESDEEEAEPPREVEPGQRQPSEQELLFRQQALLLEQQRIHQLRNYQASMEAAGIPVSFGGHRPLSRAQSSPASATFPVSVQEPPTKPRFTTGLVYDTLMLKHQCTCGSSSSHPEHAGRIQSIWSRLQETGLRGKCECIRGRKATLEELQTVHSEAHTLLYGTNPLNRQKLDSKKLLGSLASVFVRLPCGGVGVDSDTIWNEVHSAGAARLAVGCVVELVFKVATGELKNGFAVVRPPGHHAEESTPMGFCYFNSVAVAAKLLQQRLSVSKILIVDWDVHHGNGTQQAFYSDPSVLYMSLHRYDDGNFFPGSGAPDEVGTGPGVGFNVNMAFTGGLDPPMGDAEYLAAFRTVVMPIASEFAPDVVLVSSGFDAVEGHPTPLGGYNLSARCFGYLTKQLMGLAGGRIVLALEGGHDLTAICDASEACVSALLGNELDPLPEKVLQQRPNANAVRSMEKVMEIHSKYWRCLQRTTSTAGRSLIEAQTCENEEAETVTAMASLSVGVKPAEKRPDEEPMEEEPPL
Sequence of HDAC5 (Q9UQL6 whole entry): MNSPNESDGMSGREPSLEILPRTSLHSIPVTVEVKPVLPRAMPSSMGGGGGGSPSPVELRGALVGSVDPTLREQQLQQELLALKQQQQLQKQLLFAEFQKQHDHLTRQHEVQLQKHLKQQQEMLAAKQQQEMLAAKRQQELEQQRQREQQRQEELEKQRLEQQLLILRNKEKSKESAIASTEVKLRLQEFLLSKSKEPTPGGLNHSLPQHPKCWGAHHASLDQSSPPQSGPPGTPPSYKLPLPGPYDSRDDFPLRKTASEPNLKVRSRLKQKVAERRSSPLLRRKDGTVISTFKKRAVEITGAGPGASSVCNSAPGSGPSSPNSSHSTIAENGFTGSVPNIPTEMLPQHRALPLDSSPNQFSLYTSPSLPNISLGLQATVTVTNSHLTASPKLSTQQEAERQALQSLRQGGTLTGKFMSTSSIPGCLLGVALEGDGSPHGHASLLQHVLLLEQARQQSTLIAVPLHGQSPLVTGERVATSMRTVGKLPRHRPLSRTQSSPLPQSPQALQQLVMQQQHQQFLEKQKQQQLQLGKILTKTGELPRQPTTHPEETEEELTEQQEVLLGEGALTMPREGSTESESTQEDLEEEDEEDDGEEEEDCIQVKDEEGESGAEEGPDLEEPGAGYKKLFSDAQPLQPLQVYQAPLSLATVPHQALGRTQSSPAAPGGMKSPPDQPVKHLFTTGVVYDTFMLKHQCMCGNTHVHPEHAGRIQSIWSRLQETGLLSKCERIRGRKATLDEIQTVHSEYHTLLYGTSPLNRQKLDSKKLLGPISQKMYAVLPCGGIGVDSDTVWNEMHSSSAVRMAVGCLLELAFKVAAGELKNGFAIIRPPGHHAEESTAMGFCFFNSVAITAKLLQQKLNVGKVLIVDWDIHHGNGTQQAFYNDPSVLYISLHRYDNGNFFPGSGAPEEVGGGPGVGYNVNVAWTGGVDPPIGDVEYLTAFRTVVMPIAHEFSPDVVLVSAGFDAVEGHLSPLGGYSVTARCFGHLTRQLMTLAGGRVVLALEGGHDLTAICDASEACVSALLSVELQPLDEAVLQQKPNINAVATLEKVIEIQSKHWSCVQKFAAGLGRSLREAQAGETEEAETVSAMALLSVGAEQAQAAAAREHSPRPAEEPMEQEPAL

Broadly, the IC50 is the concentration at which inhibition is half-maximal. One may read the EC50 as the concentration at which the effect is half-maximal. For `CC(=O)Nc1ccc(C(=O)Nc2cc(-c3cccs3)ccc2N)cc1` [Cpd-60], the IC50 on HDAC4, at HDAC5 and at HDAC9 was above 30 µM each time. In addition, the “binding to 80 CNS targets” value in data set [1] is “no significant binding to any of the targets”. In addition, the “H4K12ac levels after washout” value in data set [2] (HEK293, 20 µM 24 hr, then 6 hr after media change) is listed as “persistent increases in H4K12ac”. Moreover, in data set [2] (HEK293, 20 µM for 24 hr), the “H4K12ac levels, constant exposure” value is recorded as “elevated H4K12ac levels”. For the same compound, the “brain uptake by PET” value in data set [3] is listed as “reaches the brain, albeit at low levels relative to plasma”. Besides, the EC50 in data set [4] stood at 7.2 µM. The “H4K12ac levels downstream of the TSS” value in data set [5] was “lower than vehicle-treated controls”. Also, in the data set on mice, the “tolerability of treatment for longer than 10 days” value was “not well tolerated”. Moreover, the “reduction in immobility time” value with C57BL/6 mice was determined as 67%.
